Measured values taken from US20100093820A1, “CRYSTALLINE PYRAZOLES” (PHARMACIA & UPJOHN COMPANY LLC, priority 2004, published 2010).

Assays:
[1] = Suspension crystallization: relative thermodynamic stability of Forms I and II; format: physicochemical; conditions: mixture of Forms I and II suspended in toluene, stirred at least three days, solid identified by PXRD
Method: Methods. Suspension crystallization. The relative stability relationship between Forms I and II at a specific temperature was bracketed by suspending a mixture of the two polymorphs in toluene in a closed glass vial that was equilibrated at the temperature of interest. Excess solid of one polymorph was first added to saturate toluene in a glass vial at the chosen temperature. The other polymorph was added at least half an hour later. The suspension was stirred continuously for at least three days. A portion of the suspension was withdrawn and immediately filtered. The filtered solid was analyzed using PXRD to identify the equilibrium solid at that temperature. […] By repeating the experiment at different temperatures, the Tt was bracketed.
Suspension Crystallization. […] The Tt must be approximately 70 to about 73° C.

[2] = Relative stability of crystal forms at ambient temperature and pressure; format: physicochemical
Text: has been described in U.S. Pat. Nos. 5,466,823 and 5,521,207. The description describes a synthesis of the compound, but is silent with respect to the crystalline form which is obtained. […] The forms can be distinguished by their PXRD (powder X-ray diffraction) patterns.

Structure (SMILES)	temperature at which the form is thermodynamically more stable (equilibrium solid phase) [1]	stability of crystal form relative to the other form [2]
NS(=O)(=O)c1ccc(-n2nc(C(F)(F)F)cc2-c2ccc(F)cc2)cc1 [Form I, 4-[5-(4-fluorophenyl)-3-(trifluoromethyl)-1H-pyrazol-1-yl]-benzenesulfonamide]	≤ 71.0 °C	–
NS(=O)(=O)c1ccc(-n2nc(C(F)(F)F)cc2-c2ccc(F)cc2)cc1 [Form II, 4-[5-(4-fluorophenyl)-3-(trifluoromethyl)-1H-pyrazol-1-yl]-benzenesulfonamide]	≥ 71.5 °C	unstable with respect to another form, Form I
